Where two headings read alike, the source gives them in different places. Marks after values point to notes of the source that are not given here.
Tests used:
[1] = system: H5N1/PR8 virus; type: cell-based, influenza A virus
[2] = system: influenza A/Moscow/10/99 virus; type: cell-based
[3] = system: influenza A/WSN/33 virus
[4] = system: influenza B/Yamagata/88 virus; type: cell-based
[5] = system: influenza A/Wyoming/03/2003 virus; type: cell-based
[6] = in vitro; conditions: human
[7] = system: influenza virus; type: cell-based
[8] = system: influenza A virus (FluA)
[9] = system: A549 cells; conditions: for CC10 (A549), concentration of 10% cytotoxicity: human
[10] = in vitro; conditions: mouse
[11] = in vitro; conditions: human; remark: listed apart in the source
[12] = in vitro; conditions: dog
[13] = system: host cell replication machinery
[14] = system: influenza A virus (FluA); test: microbe, parasite or virus in culture
[15] = system: influenza A virus (FluA); test: in vitro; conditions: human
[16] = biological target: influenza viral RNA polymerase (Influenza A virus, UniProt P03427+P03430+P15659); type: cell-based
[17] = system: influenza virus WSN; type: cell-based, influenza A virus
[18] = system: Newcastle disease virus (NDV/B1); type: cell-based
[19] = system: vesicular stomatitis virus (VSV); type: cell-based
[20] = system: retrovirus MLV; type: cell-based
[21] = system: VSV; type: cell-based, vesicular stomatitis virus
[22] = system: influenza A/WSN/33 virus; type: cell-based

Question: Which “increase of viral titer compared to untreated cells” value (shortened to “increase … to untreated cells”) [1] does the source give for `NC(=NC(=O)c1nc(Cl)c(N)nc1N)NCc1ccc(Cl)cc1Cl` [2′,4′-dichlorobenzamil] here?
Answer: ~20 fold

Question: What about the “maximum viral titer compared to untreated cells” value [2] of the same compound?
Answer: significant increase

Question: What about the “increase in viral titers in Vero cells” value [3] of the same compound?
Answer: 11 fold

Question: And the “increase of viral titer compared to untreated control” value [3]?
Answer: 10^3 fold

Question: What about the “influenza virus growth versus untreated control” value [3] of the same compound?
Answer: boost influenza virus replication

Question: What about the “increase … to untreated cells” value [4] of the same compound?
Answer: 4 fold

Question: And the “maximum viral titer compared to untreated cells” value [5]?
Answer: significant increase

Question: Which CC50 [6] does the source give for `Cc1[nH]c2ccc(-c3nnc(SCC(=O)N4CCCC4)o3)cc2c1C` [A3, 2-(5-(2,3-dimethyl-1H-indol-5-yl)-1,3,4-oxadiazol-2-ylthio)-1-(pyrrolidin-1-yl)ethanone] here?
Answer: 108 µM

Question: What about the “effect on entry of influenza virus” value [7] of the same compound?
Answer: did not inhibit viral entry

Question: And the “Inhibition of FluA (Table 5)” value [8]?
Answer: 99.2%*

Question: And the “inhibition of FluA (A549)” value [8]?
Answer: 97%

Question: And the “inhibition of FluA (HTBE)” value [8]?
Answer: 99.99%

Question: And the “inhibition of FluA (MDCK)” value [8]?
Answer: ~99.6%

Question: What about the “inhibition of FluA (MEF)” value [8] of the same compound?
Answer: ~91.2%

Question: What about the “SI (MDCK)” value [8] of the same compound?
Answer: >122

Question: What about the “CC10 (A549), concentration of 10% cytotoxicity” value (shortened to “CC10 … of 10% cytotoxicity”) [9] of the same compound?
Answer: 38 µM

Question: What about the CC50 [10] of the same compound?
Answer: > 100 µM

Question: What about the CC50 at 24 h [11] of the same compound?
Answer: 268 µM

Question: And the CC50 [12]?
Answer: > 100 µM

Question: And the “effect on overall host cell replication machinery (renilla luciferase control plasmid)” value [13]?
Answer: not affected

Question: And the “inhibition of FluB (A549)” value [4]?
Answer: 94% (A549)*

Question: What about the “inhibition of growth of influenza B virus” value [4] of the same compound?
Answer: about 1.5 logs

Question: And the IC50 ([14]; A549, read-out: IC50 (A549))?
Answer: 0.54 µM

Question: What about the IC50 ([14]; MDCK, read-out: IC50 (MDCK)) of the same compound?
Answer: 0.82 µM

Question: And the IC50 ([14]; MEF, read-out: IC50 (MEF))?
Answer: 3.6 µM

Question: What about the IC50 ([14]; read-out: IC50 (HTBE)) of the same compound?
Answer: 0.042 µM

Question: What about the IC50 ([14]; read-out: IC50 in HTBE cells) of the same compound?
Answer: 0.042 µM

Question: And the selectivity ratio [15]?
Answer: 496

Question: What about the “inhibition of viral RNA polymerase activity” value [16] of the same compound?
Answer: up to 99%

Question: For `CN(c1nc(-c2ccc(Br)cc2)cs1)C1CCS(=O)(=O)C1` (stereo not shown) [A35, 4-(4-bromophenyl)-N-methyl-N-(tetrahydro-1,1-dioxido-3-thienyl)-2-thiazolamine], which “effect on entry of influenza virus” value [7] is on record?
Answer: did not affect the entry step

Question: What about the “Inhibition of FluA (Table 5)” value [8] of the same compound?
Answer: 99.99%*

Question: What about the “inhibition of FluA (293T)” value [8] of the same compound?
Answer: ~50%

Question: What about the “inhibition of FluA (A549)” value [8] of the same compound?
Answer: 99.988%

Question: And the “inhibition of FluA (Detroit)” value [8]?
Answer: ~95.6%

Question: What about the “inhibition of FluA (HTBE)” value [8] of the same compound?
Answer: 99.98%

Question: And the “inhibition of FluA (HUH7.5)” value [8]?
Answer: ~98.4%

Question: What about the “inhibition of FluA (MDCK)” value [8] of the same compound?
Answer: ~75%

Question: And the “inhibition of FluA (MEF)” value [8]?
Answer: ~99.6%

Question: And the “inhibition of influenza virus replication” value [8]?
Answer: up to 4 logs

Question: And the “SI (MDCK)” value [8]?
Answer: 7

Question: And the “inhibition of viral replication” value [17]?
Answer: 4 logs

Question: And the “CC10 … of 10% cytotoxicity” value [9]?
Answer: 11.2 µM

Question: What about the CC50 [10] of the same compound?
Answer: 96.6 µM

Question: And the CC50 [12]?
Answer: 26.8 µM

Question: And the “inhibition of NDV” value [18]?
Answer: less significant inhibition

Question: And the “inhibition of FluB (A549)” value [4]?
Answer: 63% (A549)*

Question: What about the “inhibition of influenza B virus” value [4] of the same compound?
Answer: less significant inhibition

Question: And the IC50 ([14]; A549, read-out: IC50 (A549))?
Answer: 2.1 µM

Question: And the IC50 ([14]; HEK-293T, read-out: IC50 (293T))?
Answer: 6.2 µM

Question: And the IC50 ([14]; Huh7.5, read-out: IC50 (HUH7.5))?
Answer: 3.97 µM

Question: And the IC50 ([14]; MDCK, read-out: IC50 (MDCK))?
Answer: 3.91 µM

Question: What about the IC50 ([14]; MEF, read-out: IC50 (MEF)) of the same compound?
Answer: 2.64 µM

Question: And the IC50 ([14]; read-out: IC50 (Detroit))?
Answer: 2.07 µM

Question: What about the IC50 ([14]; read-out: IC50 (HTBE)) of the same compound?
Answer: 1.98 µM

Question: And the “inhibition of VSV” value [19]?
Answer: less significant inhibition

Question: And the selectivity ratio [15]?
Answer: 53

Question: Which “Inhibition of FluA (Table 5)” value [8] does the source give for `CN(c1ccc(O)cc1)c1nc(-c2ccc(Cl)cc2)cs1` [A35-4, 4-[[4-(4-chlorophenyl)-1,3-thiazol-2-yl](methyl)amino]phenol] here?
Answer: ~50%**

Question: What about the “CC10 … of 10% cytotoxicity” value [9] of the same compound?
Answer: 6 µM

Question: What about the CC50 [11] of the same compound?
Answer: 30 µM

Question: And the IC50 ([14]; A549, read-out: IC50 (A549))?
Answer: 6 µM

Question: And the selectivity ratio [15]?
Answer: 5

Question: Which results are given for `COc1cc2c(O)c3c(c(-c4ccc5c(c4)OCO5)c2cc1OC)C(=O)OC3` [C2, 9-(benzo[d][1,3]dioxol-5-yl)-4-hydroxy-6,7-dimethoxynaphtho[2,3-c]furan-1(3H)-one]?
Answer: effect on entry of influenza virus [7]: inhibited; effect on entry of MLV [20]: unaffected; effect on entry of VSV [21]: inhibited; inhibition of FluA (A549) [8]: 94.7%; inhibition of FluA (HTBE) [8]: 99.96%; inhibition of FluA (MDCK) [8]: ~87.5%; inhibition of FluA (MEF) [8]: ~96%; inhibition of influenza virus replication [8]: up to 3.5 logs; SI (MDCK) [8]: 4; effect on course of infection [17]: did not affect the course of infection; CC50 [10]: 4.85 µM; CC50 [12]: 0.67 µM; inhibition of FluB (A549) [4]: 63% (A549)*; IC50 ([14]; A549, read-out: IC50 (A549)): 1.6 µM; IC50 ([14]; MDCK, read-out: IC50 (MDCK)): 0.15 µM; IC50 ([14]; MEF, read-out: IC50 (MEF)): 0.34 µM; IC50 ([14]; read-out: IC50 (HTBE)): 0.059 µM; IC50 ([14]; read-out: IC50 in HTBE cells): 0.059 µM; selectivity ratio [15]: 82

Question: With `CCCCCCCCCCCCCC(=O)O[C@@H]1[C@@H](C)[C@@]2(O)[C@@H](C=C(CO)C[C@]3(O)C(=O)C(C)=C[C@@H]23)[C@@H]2C(C)(C)[C@]12OC(C)=O` [PMA, phorbol 12-myristate 13-acetate] as the compound, how does the “increase … to untreated cells” value [3] read?
Answer: 12 fold

Question: What about the “HTS result (luciferase signal of influenza mini-genome reporter)” value [22] of the same compound?
Answer: not originally recognized in the screen as an enhancer

Question: What does the source list for `N#Cc1cc2c(OCC(O)CN3CCN(C(c4ccccc4)c4ccccc4)CC3)cccc2[nH]1` (stereo not shown) [SDZ-201106]?
Answer: concentrations found non-toxic / not decreasing cell viability, up to ([9]; A549 cells, 24 h, MTS assay): up to 12.5 μM; SI [CC50/IC50] selective index [3]: 7; reduction in viral titer compared to untreated control [3]: 85%; IC50 ([3]; read-out: IC50 (compound concentration of 50% inhibition of viral replication)): 4.1 µM; reduction in viral growth/titer compared to untreated control [4]: 72%; HTS result (luciferase signal of influenza mini-genome reporter) [22]: potential influenza virus inhibitors
